Earlier results, collected in patent publication US20070292421A1, “Method for treating preeclampsia” (priority 2005, published 2007).
One block for each compound: values may come before it.

Columns and labels:
[1] = tested on: 5-HT2C, 5-HT2B, 5-HT1D, alpha-adrenergic, and dopamine receptors; conditions: relative to 5-HT2A
[2] = target: serotonin 5-HT2A receptor (Homo sapiens, UniProt P28223)
[3] = tested on: trophoblast apoptosis; conditions: in vitro
[4] = tested on: human C5a receptor; conditions: numerous models of human disease
[5] = tested on: antineutrophil cytoplasmic antibody (ANCA) positive patients
[6] = tested on: severe sepsis; conditions: OPTIMIST trial

serotonin 5-HT2A receptor, sequence (P28223 whole entry): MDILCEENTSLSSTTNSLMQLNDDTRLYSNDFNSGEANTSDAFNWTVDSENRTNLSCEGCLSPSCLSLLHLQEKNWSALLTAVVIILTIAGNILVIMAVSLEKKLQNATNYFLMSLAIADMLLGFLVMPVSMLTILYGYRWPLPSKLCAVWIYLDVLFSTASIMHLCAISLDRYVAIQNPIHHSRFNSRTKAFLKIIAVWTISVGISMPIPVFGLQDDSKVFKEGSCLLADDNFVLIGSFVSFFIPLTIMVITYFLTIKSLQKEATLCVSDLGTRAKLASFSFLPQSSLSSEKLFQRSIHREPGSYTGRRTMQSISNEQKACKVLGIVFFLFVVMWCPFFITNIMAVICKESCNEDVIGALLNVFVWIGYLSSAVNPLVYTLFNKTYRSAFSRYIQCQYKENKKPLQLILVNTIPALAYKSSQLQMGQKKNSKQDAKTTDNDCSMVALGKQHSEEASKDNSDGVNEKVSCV

binding [1]: binds less potently
affinity [2]: high affinity
Compound: O=C(c1ccc(F)cc1)C1CCN(CCn2c(=O)[nH]c3ccccc3c2=O)CC1 [Ketanserin]

Compound: CC(=O)Oc1ccccc1C(=O)O [aspirin]
effect on trophoblast apoptosis [3]: regulate trophoblast apoptosis

Compound: Ac-Phe [3D53, Ac-Phe [Orn-Pro-D-Cha-Trp-Arg]]
anti-inflammatory activity [4]: excellent anti-inflammatory activity

Compound: Rituximab: monoclonal antibody that binds the B cell surface protein CD20 (Roche Pharmaceuticals)
clinical improvement ([5]; n=11 patients combined, added to immunosuppressive drug regimen): clinical improvement in all eleven cases
cases with complete clinical improvement ([5]; of eleven cases): eight

Compound: heparin
effect on trophoblast apoptosis [3]: regulate trophoblast apoptosis

Compound: tifacogin: recombinant TFPI (Chiron Corp/Pharmacia Corp)
treatment of severe sepsis [6]: failure
